Test results as given in patent publication US9193733B2, “Piperidinylcyclobutyl substituted pyrrolopyridine and pyrrolopyrimidine derivatives as JAK inhibitors” (Incyte Corporation, priority 2012, dated 2015).

Columns and labels:
Type in all cases: biochemical
[1] = target: T1, human JAK1 (a.a. 837-1142) catalytic domain (Homo sapiens, UniProt P23458); test: In vitro JAK kinase assay (HTRF, phosphorylation of a biotinylated peptide), JAK1; settings: 1 mM ATP
T1 construct: human JAK1 (a.a. 837-1142) and JAK2 (a.a. 828-1132); His tag (N); made in house; host or cells: insect cells (baculovirus)
T1 sequence (P23458 849-1154): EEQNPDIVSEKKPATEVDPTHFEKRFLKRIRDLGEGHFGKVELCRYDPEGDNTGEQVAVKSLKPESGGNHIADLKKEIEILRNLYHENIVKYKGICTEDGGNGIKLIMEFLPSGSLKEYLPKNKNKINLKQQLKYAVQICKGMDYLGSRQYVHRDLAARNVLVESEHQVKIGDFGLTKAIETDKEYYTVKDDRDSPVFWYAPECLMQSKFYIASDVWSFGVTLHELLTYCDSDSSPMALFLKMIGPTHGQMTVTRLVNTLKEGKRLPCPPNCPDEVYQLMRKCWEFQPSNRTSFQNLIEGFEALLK
Protocol: (§1) Compounds herein were tested for inhibitory activity of JAK targets according to the following in vitro assay described in Park et al., Analytical Biochemistry 1999, 269, 94-104. The catalytic domains of human JAK1 (a.a. 837-1142) and JAK2 (a.a. 828-1132) with an N-terminal His tag were expressed using baculovirus in insect cells and purified. The catalytic activity of JAK1 and JAK2 was assayed by measuring the phosphorylation of a biotinylated peptide. The phosphorylated peptide was detected by homogenous time resolved fluorescence (HTRF). IC50s of compounds were measured for each kinase in the 40 microL reactions that contain the enzyme, ATP and 500 nM peptide in 50 mM Tris (pH 7.8) buffer with 100 mM NaCl, 5 mM DTT, and 0.1 mg/mL (0.01%) BSA. For the 1 mM IC50 measurements, ATP concentration in the reactions was 1 mM. Reactions were carried out at room temperature for 1 hour and then stopped with 20 μL 45 mM EDTA, 300 nM SA-APC, 6 nM Eu-Py20 in assay buffer (Perkin Elmer, Boston, Mass.). Binding to the Europium labeled antibody took place for 40 minutes and HTRF signal was measured on a Fusion plate reader (Perkin Elmer, Boston, Mass.). See Table A for data related to compounds of the Examples (at 1 mM). Data is indicated as ranges: <20 nM (+), 20 to <150 nM (++), 150 to 500 nM (+++).

[2] = system: human JAK1 (a.a. 837-1142) catalytic domain; test: as above; settings: ratio of JAK2 IC50 to JAK1 IC50, 1 mM ATP
Protocol: as §1

[3] = target: T2, human JAK2 (a.a. 828-1132) catalytic domain (Homo sapiens, UniProt O60674); test: In vitro JAK kinase assay (HTRF, phosphorylation of a biotinylated peptide), JAK2; settings: 1 mM ATP
T2 construct: human JAK1 (a.a. 837-1142) and JAK2 (a.a. 828-1132); His tag (N); made in house; host or cells: insect cells (baculovirus)
T2 sequence (O60674 828-1132): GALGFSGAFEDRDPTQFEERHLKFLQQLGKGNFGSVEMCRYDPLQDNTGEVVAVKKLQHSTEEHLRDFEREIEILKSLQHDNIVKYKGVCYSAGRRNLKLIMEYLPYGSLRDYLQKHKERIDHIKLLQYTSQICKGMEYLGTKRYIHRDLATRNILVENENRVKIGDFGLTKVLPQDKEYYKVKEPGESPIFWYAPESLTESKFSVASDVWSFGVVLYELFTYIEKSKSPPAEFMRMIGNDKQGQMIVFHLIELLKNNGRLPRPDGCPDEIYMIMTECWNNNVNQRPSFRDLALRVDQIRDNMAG
Protocol: as §1

Work on N#CC[C@]1(n2cc(-c3ncnc4[nH]ccc34)cn2)C[C@H](N2CCC(Oc3cc(CN(CCO)CCO)cc(C(F)(F)F)n3)CC2)C1 [Example 16, {trans-3-(4-{[4-{[bis(2-hydroxyethyl)amino]methyl}-6-(trifluoromethyl)pyridin-2-yl]oxy}piperidin-1-yl)-1-[4-(7H-pyrrolo[2,3-d]pyrimidin-4-yl)-1H-pyrazol-1-yl]cyclobutyl}acetonitrile] yielded an IC50 [1] of less than 20 nM, a JAK2/JAK1 [2] greater than 10 and an IC50 [3] of 20 to 150 nM.

Work on N#CC[C@]1(n2cc(-c3ncnc4[nH]ccc34)cn2)C[C@H](N2CCC(Nc3cc(CN4CC[C@H](O)C4)cc(C(F)(F)F)n3)CC2)C1 [Example 43, {trans-3-(4-{[4-{[(3S)-3-hydroxypyrrolidin-1-yl]methyl}-6-(trifluoromethyl)pyridin-2-yl]amino}piperidin-1-yl)-1-[4-(7H-pyrrolo[2,3-d]pyrimidin-4-yl)-1H-pyrazol-1-yl]cyclobutyl}acetonitrile] yielded an IC50 [1] of less than 20 nM, a JAK2/JAK1 [2] greater than 10 and an IC50 [3] of 20 to 150 nM.

With C[C@H](O)CNCc1cc(OC2CCN([C@H]3C[C@](CC#N)(n4cc(-c5ncnc6[nH]ccc56)cn4)C3)CC2)nc(C(F)(F)F)c1 [Example 15, {trans-3-(4-{[4-({[(2S)-2-hydroxypropyl]amino}methyl)-6-(trifluoromethyl)pyridin-2-yl]oxy}piperidin-1-yl)-1-[4-(7H-pyrrolo[2,3-d]pyrimidin-4-yl)-1H-pyrazol-1-yl]cyclobutyl}acetonitrile] the IC50 [1] was less than 20 nM, the JAK2/JAK1 [2] was greater than 10 and the IC50 [3] was 20 to 150 nM.

C[C@@H](O)CNCc1cc(OC2CCN([C@H]3C[C@](CC#N)(n4cc(-c5ncnc6[nH]ccc56)cn4)C3)CC2)nc(C(F)(F)F)c1 [Example 14, {trans-3-(4-{[4-({[(2R)-2-hydroxypropyl]amino}methyl)-6-(trifluoromethyl)pyridin-2-yl]oxy}piperidin-1-yl)-1-[4-(7H-pyrrolo[2,3-d]pyrimidin-4-yl)-1H-pyrazol-1-yl]cyclobutyl}acetonitrile] gave an IC50 [1] of less than 20 nM, a JAK2/JAK1 [2] greater than 10 and an IC50 [3] of 20 to 150 nM.

N#CC[C@]1(n2cc(-c3ncnc4[nH]ccc34)cn2)C[C@H](N2CCC(Nc3cc(CN4CC(O)C4)cc(C(F)(F)F)n3)CC2)C1 [Example 41, {trans-3-(4-{[4-[(3-hydroxyazetidin-1-yl)methyl]-6-(trifluoromethyl)pyridin-2-yl]amino}piperidin-1-yl)-1-[4-(7H-pyrrolo[2,3-d]pyrimidin-4-yl)-1H-pyrazol-1-yl]cyclobutyl}acetonitrile] gave an IC50 [1] of less than 20 nM, a JAK2/JAK1 [2] greater than 10 and an IC50 [3] of 20 to 150 nM.

With CC1(C)CN(Cc2cc(NC3CCN([C@H]4C[C@](CC#N)(n5cc(-c6ncnc7[nH]ccc67)cn5)C4)CC3)nc(C(F)(F)F)c2)C1 [Example 35, {trans-3-(4-{[4-[(3,3-dimethylazetidin-1-yl)methyl]-6-(trifluoromethyl)pyridin-2-yl]amino}piperidin-1-yl)-1-[4-(7H-pyrrolo[2,3-d]pyrimidin-4-yl)-1H-pyrazol-1-yl]cyclobutyl}acetonitrile] the IC50 [1] was less than 20 nM, the JAK2/JAK1 [2] was greater than 10 and the IC50 [3] was 20 to 150 nM.

For CCNCc1cc(N(C)C2CCN([C@H]3C[C@](CC#N)(n4cc(-c5ncnc6[nH]ccc56)cn4)C3)CC2)nc(C(F)(F)F)c1 [Example 48, {trans-3-{4-[[4-[(ethylamino)methyl]-6-(trifluoromethyl)pyridin-2-yl](methyl)amino]piperidin-1-yl}-1-[4-(7H-pyrrolo[2,3-d]pyrimidin-4-yl)-1H-pyrazol-1-yl]cyclobutyl}acetonitrile], the IC50 [1] was less than 20 nM, the JAK2/JAK1 [2] was greater than 10 and the IC50 [3] was 20 to 150 nM.

In the case of N#CC[C@]1(n2cc(-c3ncnc4[nH]ccc34)cn2)C[C@H](N2CCC(Oc3cc(CN[C@H]4CCOC4)cc(C(F)(F)F)n3)CC2)C1 [Example 7, [trans-1-[4-(7H-pyrrolo[2,3-d]pyrimidin-4-yl)-1H-pyrazol-1-yl]-3-(4-{[4-{[(3S)-tetrahydrofuran-3-ylamino]methyl}-6-(trifluoromethyl)pyridin-2-yl]oxy}piperidin-1-yl)cyclobutyl]acetonitrile], the IC50 [1] is reported as less than 20 nM, the JAK2/JAK1 [2] is reported as greater than 10 and the IC50 [3] is reported as 20 to 150 nM.

With N#CC[C@]1(n2cc(-c3ncnc4[nH]ccc34)cn2)C[C@H](N2CCC(Nc3cc(CN4CCOCC4)cc(C(F)(F)F)n3)CC2)C1 [Example 40, {trans-3-(4-{[4-(morpholin-4-ylmethyl)-6-(trifluoromethyl)pyridin-2-yl]amino}piperidin-1-yl)-1-[4-(7H-pyrrolo[2,3-d]pyrimidin-4-yl)-1H-pyrazol-1-yl]cyclobutyl}acetonitrile] the IC50 [1] was less than 20 nM, the JAK2/JAK1 [2] was greater than 10 and the IC50 [3] was 20 to 150 nM.

Molecule N#CC[C@]1(n2cc(-c3ncnc4[nH]ccc34)cn2)C[C@H](N2CCC(Nc3cc(CN4CC[C@@H](O)C4)cc(C(F)(F)F)n3)CC2)C1 [Example 44, {trans-3-(4-{[4-{[(3R)-3-hydroxypyrrolidin-1-yl]methyl}-6-(trifluoromethyl)pyridin-2-yl]amino}piperidin-1-yl)-1-[4-(7H-pyrrolo[2,3-d]pyrimidin-4-yl)-1H-pyrazol-1-yl]cyclobutyl}acetonitrile] has an IC50 [1] of less than 20 nM, a JAK2/JAK1 [2] greater than 10 and an IC50 [3] of 20 to 150 nM.

For N#CC[C@]1(n2cc(-c3ncnc4[nH]ccc34)cn2)C[C@H](N2CCC(Oc3cc(C4(O)COC4)cc(C(F)(F)F)n3)CC2)C1 [Example 49, {trans-3-(4-{[4-(3-hydroxyoxetan-3-yl)-6-(trifluoromethyl)pyridin-2-yl]oxy}piperidin-1-yl)-1-[4-(7H-pyrrolo[2,3-d]pyrimidin-4-yl)-1H-pyrazol-1-yl]cyclobutyl}acetonitrile], the IC50 [1] was less than 20 nM, the JAK2/JAK1 [2] was greater than 10 and the IC50 [3] was 20 to 150 nM.

With N#CC[C@]1(n2cc(-c3ncnc4[nH]ccc34)cn2)C[C@H](N2CCC(Nc3cc(CN[C@H]4C[C@H](O)C4)cc(C(F)(F)F)n3)CC2)C1 [Example 34, {trans-3-(4-{[4-{[(trans-3-hydroxycyclobutyl)amino]methyl}-6-(trifluoromethyl)pyridin-2-yl]amino}piperidin-1-yl)-1-[4-(7H-pyrrolo[2,3-d]pyrimidin-4-yl)-1H-pyrazol-1-yl]cyclobutyl}acetonitrile] the IC50 [1] was less than 20 nM, the JAK2/JAK1 [2] was greater than 10 and the IC50 [3] was 20 to 150 nM.

With CC1(NCc2cc(OC3CCN([C@H]4C[C@](CC#N)(n5cc(-c6ncnc7[nH]ccc67)cn5)C4)CC3)nc(C(F)(F)F)c2)COC1 [Example 9, {trans-3-(4-{[4-{[(3-methyloxetan-3-yl)amino]methyl}-6-(trifluoromethyl)pyridin-2-yl]oxy}piperidin-1-yl)-1-[4-(7H-pyrrolo[2,3-d]pyrimidin-4-yl)-1H-pyrazol-1-yl]cyclobutyl}acetonitrile] the IC50 [1] was less than 20 nM, the JAK2/JAK1 [2] was greater than 10 and the IC50 [3] was 20 to 150 nM.

With N#CC[C@]1(n2cc(-c3ncnc4[nH]ccc34)cn2)C[C@H](N2CCC(Oc3cc(Cn4cnnc4)cc(C(F)(F)F)n3)CC2)C1 [Example 24, [trans-1-[4-(7H-pyrrolo[2,3-d]pyrimidin-4-yl)-1H-pyrazol-1-yl]-3-(4-{[4-(4H-1,2,4-triazol-4-ylmethyl)-6-(trifluoromethyl)pyridin-2-yl]oxy}piperidin-1-yl)cyclobutyl]acetonitrile] the IC50 [1] was less than 20 nM, the JAK2/JAK1 [2] was greater than 10 and the IC50 [3] was 20 to 150 nM.

For N#CC[C@]1(n2cc(-c3ncnc4[nH]ccc34)cn2)C[C@H](N2CCC(Nc3cc(CN[C@H]4C[C@H](O)C4)nc(C(F)(F)F)n3)CC2)C1 [Example 30, {trans-3-(4-{[6-{[(trans-3-hydroxycyclobutyl)amino]methyl}-2-(trifluoromethyl)pyrimidin-4-yl]amino}piperidin-1-yl)-1-[4-(7H-pyrrolo[2,3-d]pyrimidin-4-yl)-1H-pyrazol-1-yl]cyclobutyl}acetonitrile], the IC50 [1] was less than 20 nM, the JAK2/JAK1 [2] was greater than 10 and the IC50 [3] was 20 to 150 nM.
